Measured values: US6294565A, “Methods of combatting infectious diseases using dicationic bis-benzimidazoles” (University of North Carolina at Chapel Hill, priority 2000, dated 2001)
Converted amounts (≈) assume the structure as drawn.

What was measured:
L1210 cells = test: in vitro cytotoxicity, 3H-thymidine incorporation in L1210 cells; format: cell-based; conditions: Mus musculus, 48 hours, 6 replicates
Source text: Source: L1210 cells were obtained from the American Type Culture Collection (ATCC#CCL219). This line is a mouse lymphocytic leukemia line first described by E. Law et al., J. Natl. Cancer Inst. 10, 179-192 (1949) as a tumor arising in a mouse following skin paintings with 0.2% methycholanthrene. The first report of suspension culture was reported by G. Moore et al. J. Natl. Cancer Inst. 36, 405-421 (1966). This line has been used extensively for routine screening programs of chemical agents and natural products for cytotoxic activity and is also utilized in preliminary testing for antitumor activity by the NCI in cancer chemotherapy screening studies.
The in vitro cytotoxicity studies were performed essentially as described by Denizot and Lang, "Rapid calorimetric assay for cell growth and survival: Modification of tetrazolium dye procedure giving improved sensitivity and reliability", J. Immunological Methods 89, 271 (1986), but with the following modifications. Since many of the drugs had color interference, the viability of the cells was determined with a ^3 H-thymidine incorporation method. L1210 cells in DMEM +10% fetal calf serum were plated at 2.0×10^4 cells/well. An equal volume of test compound was added to each well diluted to 2× the final concentration in the above medium. Final drug concentrations ranged from 0.05 to 50 μM. After 24 hours at 37° C., 2.5 μCi of ^3 H-Thymidine (5 Ci/mmol) was added to each well. At 48 hours, the cells were harvested onto glass filters and radioactivity was measured with a scintillation counter.
The IC50 value was determined as the concentration leading to a 50% reduction of ^3 H-thymidine incorporation relative to control wells. Each value shown in Table 1, above, resulted from 6 replicates for each compound.

Calf thymus DNA = test: DNA binding by change in melting of the DNA bound to the compounds (ΔTm); conditions: 259 nm, 18° C./h heating; initial absorbance of 0.3A259
Protocol: DNA binding potency was determined for each of the compounds because previous work had determined that the binding of dicationic molecules to DNA is a prerequisite for their antimicrobial activity. See e.g., Tidwell, R. R., et al., Antimicrob. Agents Chemother. 37, 1713-1716 (1993); Bell, C. A., et al., Antimicrob. Agents Chemother. 35, 1099-1107 (1991). The DNA binding of the compounds was determined by the change in melting of the DNA bound to the compounds. The method is well documented and is a considered a standard method for determining DNA binding strength. See Cory, M. et al., J. Med. Chem. 25, 431-438 (1992). In brief, a UV-visible light spectrophotometer with a cuvette changer was interfaced to a microcomputer that recorded the cuvette temperature and DNA-absorbance data at 259 nm as the sample was heated at a rate of 18° C./h. Calf thymus DNA was used at an initial absorbance of 0.3A259. The midpoint of each denaturation curve was determined after graphic selection on the computer of the starting and ending absorbance temperature for each curve of each experiment. DNA or DNA bound to experimental compound was run in each experiment and the ΔTm s were determined from the polynucleotide TM for that experiment.

S. cerevisiae = S. cerevisiae IC50 (Table I); format: cell-based; conditions: Saccharomyces cerevisiae
C. neoformans = test: standard in vitro fungal cell growth inhibition assay (broth dilution, M27-P), minimum fungicidal concentration; format: cell-based; conditions: Cryptococcus neoformans, H99 clinical isolate, RPMI media, inoculum 10^4 cells, less than 0.01% survival of original inoculum
Protocol: (§1) Activity of the compounds were assessed using a standard in vitro fungal cell growth inhibition assay (the broth dilution antifungal susceptibility testing of yeast, proposed standard document M27-P, validated by the National Committee for Clinical Laboratory Standards, 1992). Briefly, this broth dilution procedure uses RPMI media, and an inoculum of 10^4 cells. Control tubes contained media alone. After the minimal inhibitor concentration was determined by the above procedure, tubes with no visible growth were subcultured to determine the minimum fungicidal concentration by using criteria of less than 0.01% survival of original inoculum. Two organisms were tested: (1) H99, a clinical isolate of C. neoformans which is fully susceptible to azoles and polyenes in vitro and in vivo; and (2) A39, a clinical isolate of C. albicans which is fully susceptible to azoles and polyenes.
(§2) The MFC's (minimum fungicidal concentration) against these two important AIDS-associated fungal infections are shown in Table 1. MFCs were determined following the method of McGinnis.

C. albicans = test: as above; format: cell-based; conditions: Candida albicans, A39 clinical isolate, RPMI media, inoculum 10^4 cells, less than 0.01% survival of original inoculum
Protocol: as §1, §2

Structure (SMILES)	IC50 (S. cerevisiae)	IC50 (L1210 cells)	ΔTm DNA binding (Calf thymus DNA)	MFC (C. neoformans)	MFC (C. albicans)
N=C(N)c1ccc2nc(-c3ccc(-c4nc5ccc(C(=N)N)cc5[nH]4)[nH]3)[nH]c2c1 [Compound 1, 2,5-bis(5-amidino-2-benzimidazolyl)pyrrole]	45 µM	0.21 µM	18.1 °C	2.85 µM (≈ 1.09 µg/mL)	5.71 µM (≈ 2.19 µg/mL)
c1cc2[nH]c(-c3ccc(-c4nc5cc(C6=NCCN6)ccc5[nH]4)[nH]3)nc2cc1C1=NCCN1 [Compound 2, 2,5-bis-[5-(2-imidazolinyl)-2-benzimidazolyl]pyrrole]	< 1 µM	1.07 µM		107 µM (≈ 46.6 µg/mL)	26.8 µM (≈ 11.7 µg/mL)
c1cc(-c2nc3cc(C4=NCCN4)ccc3[nH]2)nc(-c2nc3cc(C4=NCCN4)ccc3[nH]2)c1 [Compound 3, 2,6-bis[5-(2-imidazolinyl)-2-benzimidazolyl]pyridine]	10 µM	1.26 µM		5.2 µM (≈ 2.33 µg/mL)	2.6 µM (≈ 1.16 µg/mL)
N=C(N)c1ccc2nc(-c3ccc(-c4nc5ccc(C(=N)N)cc5[nH]4)o3)[nH]c2c1 [Compound 9, 2,5-bis(5-amidino-2-benzimidazolyl)furan]				1.61 µM (≈ 0.619 µg/mL)	6.44 µM (≈ 2.48 µg/mL)
c1cc2[nH]c(-c3ccc(-c4nc5cc(C6=NCCN6)ccc5[nH]4)o3)nc2cc1C1=NCCN1 [Compound 10, 2,5-bis[5-(2-imidazolinyl)-2-benzimidazolyl]furan]				2.6 µM (≈ 1.13 µg/mL)	5.21 µM (≈ 2.27 µg/mL)

The next lines start with results.

IC50 (S. cerevisiae)	Structure (SMILES)	IC50 (L1210 cells)	ΔTm DNA binding (Calf thymus DNA)	MFC (C. neoformans)	MFC (C. albicans)
90 µM	Cn1c(-c2nc3ccc(C(=N)N)cc3[nH]2)ccc1-c1nc2ccc(C(=N)N)cc2[nH]1 [Compound 4, 1-Methyl-2,5-bis(5-amidino-2-benzimidazolyl)pyrrole]	0.81 µM	20.3 °C	5.69 µM (≈ 2.26 µg/mL)	2.84 µM (≈ 1.13 µg/mL)
> 100 µM	Cn1c(-c2nc3cc(C4=NCCN4)ccc3[nH]2)ccc1-c1nc2cc(C3=NCCN3)ccc2[nH]1 [Compound 5]	1.51 µM	22.5 °C	2.54 µM (≈ 1.14 µg/mL)	5.09 µM (≈ 2.29 µg/mL)
95 µM	N=C(N)c1ccc2[nH]c(-c3cccc(-c4nc5cc(C(=N)N)ccc5[nH]4)n3)nc2c1 [Compound 7, 2,6-bis(5-amidino-2-benzimidazoyl)pyridine]	13.6 µM	15.3 °C	> 179 µM	> 179 µM
304 µM	c1cc(-c2nc3ccc(C4=NCCCN4)cc3[nH]2)nc(-c2nc3ccc(C4=NCCCN4)cc3[nH]2)c1 [Compound 8, 2,6-bis[5-(1,4,5,6-tetrahydro-2-pyrimidinyl)-2-benzimidazolyl]pyridine]	3 µM	14.8 °C	19 µM (≈ 9.05 µg/mL)	> 52 µM
